Laboratory results from US10183011B2, “Anti-depression compounds” (Board of Regents of the University of Texas System, priority 2009, dated 2019).

Legend:
Format in all cases: in vivo, mouse
[1] = system: hippocampal neurogenesis; experiment: Neurogenic efficacy of orally administered compound, dose response; details: for pro-neurogenic or neuroprotective efficacy, oral: daily oral gavage for 7 days
Description: FIG. 7: Neurogenic efficacy of orally administered Example 45 Compound was dose-related. […] Results shown are the average obtained from analysis of 5 adult wild type male mice at each dose.
Pharmacokinetic analysis of Example 45 Compound in plasma and whole brain tissue was undertaken after single IV, IP and oral gavage administrations. […] These favorable pharmacological properties facilitated a dose response experiment wherein daily oral administration of Example 45 Compound to adult mice was monitored for both brain levels of the chemical and pro-neurogenic efficacy (FIG. 7).

[2] = system: G93A-SOD1 mutant mice; experiment: Neurological score and weight loss in G93A-SOD1 mice, treatment from day 80; details: daily treatment from day 80
Description: Neurological score was performed every day starting with compound treatment at 80 days, and was determined as follows: ‘0’=full extension of hind legs away from lateral midline when the test mouse was suspended by its tail, and could hold this for 2 seconds, suspended 2-3 times; ‘1’=collapse or partial collapse of leg extension towards lateral midline (weakness) or trembling of hind legs during tail suspension; ‘2’=toes curl under at least twice during walking of 12 inches, or any part of foot drags along cage bottom/table; ‘3’=rigid paralysis or minimal joint movement, foot not being used for forward motion; and ‘4’=mouse cannot right itself within 30 seconds from either side. Upon reaching a score of 2, animals were given a fresh Petri dish with wet food in the dish daily. When mice achieved a score of 4 for two consecutive days they were euthanized.
Mice were weighed daily starting on the day of initiation of compound administration in order to assess disease progression and readjust compound dosage. A digital balance with a step of 0.01 g was used, and mice were placed in a small plastic container on the scale when weighed. Weight was taken between 11 am and 1 pm every day.

[3] = system: G93A-SOD1 transgenic mice; experiment: G93A-SOD1 model of ALS, treatment from 40 days of age
Description: FIG. 24A, FIG. 24B, FIG. 24C and FIG. 24D. Example 45 Compound (P7C3) Provides Therapeutic Benefit in Animal Model of Amyotrophic Lateral Sclerosis (ALS). Female G93A SOD1 mice (n=30 in each group, with all mice sibling matched across treatment groups) were treated with either vehicle or P7C3 (10 mg/kg i.p. twice daily) starting at 40 days of age. […] This score is determined as follows: ‘0’=full extension of hind legs away from lateral midline when the test mouse is suspended by its tail, and can hold this for 2 seconds, suspended 2-3 times; ‘1’=collapse or partial collapse of leg extension towards lateral midline (weakness) or trembling of hind legs during tail suspension; ‘2’=toes curl under at least twice during walking of 12 inches, or any part of foot drags along cage bottom/table; ‘3’=rigid paralysis or minimal joint movement, foot not being used for forward motion; and ‘4’=mouse cannot right itself within 30 seconds from either side. With further disease progression, vehicle-treated mice show the expected decline in retention time on the accelerating rotarod, with retention time averaged across 4 trials (FIG. 24C, open bars). P7C3-treated mice, however, show a consistent trend towards improved performance on this task after onset of disease (FIG. 24C, filled bars), with statistically significant improvement on days 131, 138 and 145 (*, p<0.001, Student's t Test). All graphical data shown above is mean+/−SEM, with statistical analysis conducted using the Student's t Test). As another means of disease progression, walking gait was evaluated. […] Front paws are dipped in red ink, and back paws are dipped in black ink. […] All analysis was conducted blind to treatment group.
P7C3 was intraperitoneally administered to female G93A-SOD1 transgenic mice using a treatment paradigm of 10 mg/kg P7C3 i.p. twice a day, compared to vehicle, starting at 40 days of age. This treatment scheme was selected based on standard protocols for initial proof of concept screens in these mice. To control for transgene copy number, mice are sibling matched between treatment groups, as per standard protocol. After initiation of P7C3 or vehicle treatment, date of onset of illness is determined by peak weight, and initial progression of disease is defined as the day at which mice fall to 10% below their maximum weight. Mice are also assessed daily by a standard determination of neurological severity score, with a score of 2 or worse for two consecutive days serving as an additional marker of illness progression. This score is determined blind to treatment group with the scoring system described in the legend for the figure. […]
As an initial test of efficacy in this disease model, we intraperitoneally administered P7C3 to female G93A-SOD1 transgenic mice using a treatment paradigm of 20 mg/kg/day P7C3, with vehicle administered to siblings, starting at 40 days of age. […] To control for transgene copy number, mice were sibling matched between treatment groups, as per standard protocol, and quantitative PCR was performed to ensure that the copy number was maintained within the normal range. After initiation of P7C3 or vehicle treatment, date of onset of illness was determined by peak weight, and initial progression of disease was defined as the day at which mice fell to 10% below their maximum weight. Mice were also assessed daily by a standard measure of neurological severity score ranging from 0-4, with a higher number reflecting greater neurologic impairment. […]

[4] = 10 mg/kg i.p. twice a day from 40 days of age

OC(CNc1ccccc1)Cn1c2ccc(Br)cc2c2cc(Br)ccc21 (stereo not drawn) [Example 45 Compound]
oral dose giving maximal pro-neurogenic efficacy ([1]; daily oral administration to adult mice): ≥ 5 mg/kg | pro-neurogenic or neuroprotective efficacy, oral ([1]; doses 5 to 40 mg/kg): roughly double that of vehicle control | pro-neurogenic or neuroprotective efficacy, oral ([1]; doses below 1.0 mg/kg): no greater than vehicle control

COc1cccc(NCC(F)Cn2c3ccc(Br)cc3c3cc(Br)ccc32)c1 (stereo not drawn) [Example P7C3A20, N-(3-(3,6-dibromo-9H-carbazol-9-yl)-2-fluoropropyl)-3-methoxyaniline]
other measures of disease progression (neurological score or weight loss) [2]: did not observe any delay in other measures of disease progression

OC(CNc1ccccc1)Cn1c2ccc(Br)cc2c2cc(Br)ccc21 (stereo not drawn) [Example P7C3]
accelerating rotarod performance [3, 4]: significantly improved performance in the accelerating rotarod task | age at neurological severity score of 2 [3, 4]: significantly delays the age at which G93A-SOD1 mice attain a neurological severity score of 2 | disease progression: time point of drop to 10% below maximum weight [3, 4]: slows disease progression | walking gait (ink footprint) [3, 4]: preservation of normal gait on day 118 | survival ([3]; 20 mg/kg/day from 40 days of age): did not translate into increased survival of the animals
